Test results reported in patent US10689354B2, “Aminoazole derivative” (Teijin Pharma Limited, priority 2015, dated 2020).

Tests used:
human androgen receptor = biological target: T1, human androgen receptor (Homo sapiens, UniProt P10275); test: Reporter assay of an androgen receptor responsive sequence (luciferase, transiently transfected HEK293 cells); format: cell-based; conditions: 24 hours incubation, relative to activity of 100 nM DHT, read-out: AR transcriptive activity (pEC50) (converted)
T1 construct: expressed in transfected cells; host or cells: HEK293
T1 sequence (P10275 1-920): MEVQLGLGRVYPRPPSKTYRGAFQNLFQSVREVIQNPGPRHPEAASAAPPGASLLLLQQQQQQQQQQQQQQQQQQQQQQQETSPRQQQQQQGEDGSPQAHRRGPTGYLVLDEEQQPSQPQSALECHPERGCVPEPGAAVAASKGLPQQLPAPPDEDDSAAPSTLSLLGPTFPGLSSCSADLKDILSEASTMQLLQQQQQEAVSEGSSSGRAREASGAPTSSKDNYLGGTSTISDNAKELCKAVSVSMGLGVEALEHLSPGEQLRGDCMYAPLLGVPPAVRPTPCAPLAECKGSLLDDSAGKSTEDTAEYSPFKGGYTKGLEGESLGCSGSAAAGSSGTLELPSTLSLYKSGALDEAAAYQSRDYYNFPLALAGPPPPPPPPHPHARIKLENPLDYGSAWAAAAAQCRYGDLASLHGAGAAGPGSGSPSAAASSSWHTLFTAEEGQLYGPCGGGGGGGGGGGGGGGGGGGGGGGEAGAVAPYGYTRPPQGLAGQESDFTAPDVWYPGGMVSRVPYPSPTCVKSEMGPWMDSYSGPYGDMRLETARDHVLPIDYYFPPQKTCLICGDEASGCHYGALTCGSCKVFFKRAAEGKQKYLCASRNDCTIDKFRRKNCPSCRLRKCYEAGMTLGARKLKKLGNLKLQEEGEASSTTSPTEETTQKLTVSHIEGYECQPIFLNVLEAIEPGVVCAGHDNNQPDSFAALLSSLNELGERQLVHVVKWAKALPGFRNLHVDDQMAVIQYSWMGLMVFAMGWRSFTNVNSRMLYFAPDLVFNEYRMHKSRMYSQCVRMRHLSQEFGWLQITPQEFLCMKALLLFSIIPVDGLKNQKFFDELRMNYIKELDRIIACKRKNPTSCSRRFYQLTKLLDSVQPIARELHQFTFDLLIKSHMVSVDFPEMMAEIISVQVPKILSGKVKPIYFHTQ
Experimental: Reporter Assay of an Androgen Receptor Responsive Sequence
To examine the agonist activity of compounds for androgen, a reporter assay using an androgen receptor responsive sequence was conducted.
Using Lipofectamine 2000 (Invitrogen), a plasmid mixture (pGL4-ARE (200 ng/well), pcDNA3-hAR (20 ng/well), pRL-TK (Promega) (150 ng/well)) was transiently transfected into HEK293 cells. The contents of the plasmid (mixture) are as follows:
pGL4-ARE is a reporter plasmid containing firefly luciferase sequence under the control of androgen receptor responsive sequence; pcDNA3-hAR is a plasmid containing full-length sequence of human androgen receptor under the constant control of CMV promoter; pRL-TK is a plasmid containing Renilla Luciferase sequence under the control of herpes simplex virus thymidine kinase and used as an internal standard for evaluations of transfection efficiency and compound toxicity.
After the incubation of Lipofectamine 2000 and the plasmid mixture in Opti-MEM for 20 minutes, the mixture was mixed with a cell suspension prepared with Opti-MEM in the similar way, and the cell suspension was plated to a 96-well plate at 20000 cells/well. The transfection was conducted by incubating the plates under the condition of 5% CO2 at 37° C. for 3 hours. Three hours after the transfection, the culture medium was removed and a compound solution prepared by DMEM supplemented with 5% FBS and treated with charcoal was added, and the mixture was incubated under the condition of 5% CO2 at 37° C. for 24 hours. After the incubation with the compound, luciferase activities were measured with a luminometer using Dual-Glo™ Luciferase Assay System (Promega). The measurement of the luciferase activities was performed in accordance with the protocol recommended by Promega. The activity of the compound was determined by comparing to the activity of 100 nM of DHT, and quantified the logarithm value (pEC50) of reciprocal value of the effective concentration of the compound which is equal to 50% of the activity value by applying a 4 parameter goodness-of-fit calculation.

[1] = biological target: T2, androgen receptor (AR-LBD) (Rattus norvegicus, UniProt P15207); test: Evaluation of androgen receptor affinity (PolarScreen Androgen Receptor Competitor Assay Kit, Red; fluorescence polarization); conditions: 22° C. for 5 hours, relative to binding rate of 1 μM DHT, read-out: AR affinity (pEC50) (converted)
T2 construct: 5 μL of 2×AR-LBD/Fluoromone AL Red Complex contained in the kit; purchased Invitrogen
T2 sequence (P15207 651-882 limits assumed): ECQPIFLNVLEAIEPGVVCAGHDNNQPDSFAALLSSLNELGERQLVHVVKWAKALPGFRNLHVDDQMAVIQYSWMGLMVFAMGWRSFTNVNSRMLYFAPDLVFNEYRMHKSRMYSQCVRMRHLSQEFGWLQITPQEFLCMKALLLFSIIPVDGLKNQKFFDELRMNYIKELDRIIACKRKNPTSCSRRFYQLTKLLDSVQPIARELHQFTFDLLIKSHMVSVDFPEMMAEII
Outline: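 Test compound and the 2× AR-LBD/Fluoromone AL Red complex were combined in duplicate wells. After reacting 5 h at 22° C, polarization was measured. pEC50 was derived by 4-parameter fitting, normalizing to binding obtained with 1 μM dihydrotestosterone.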

Row | SMILES | EC50 (human androgen receptor) | EC50 [1]
1 | Cc1oc(N(CCc2ccc(C#N)cc2)Cc2ccc(F)cc2)nc1C(=O)NS(C)(=O)=O [Compound 552, 2-[2-(4-cyanophenyl)ethyl-[(4-fluorophenyl)methyl]amino]-5-methyl-N-methylsulfonyl-oxazole-4-carboxamide] | 501 nM | 79.4 nM
2 | CS(=O)(=O)NC(=O)c1nc(N(Cc2ccccc2Cl)c2ccc(C#N)cc2)sc1Br [Example 240, 5-bromo-2-[N-[(2-chlorophenyl)methyl]-4-cyano-anilino]-N-methylsulfonyl-thiazole-4-carboxamide] | 200 nM | 79.4 nM
3 | Cc1sc(N(C[C@@H]2CCCC[C@H](O)C2)c2ccc(C#N)cc2)nc1C(=O)NS(C)(=O)=O (racemic) [Compound 473, 2-[4-cyano-N-[[cis-3-hydroxycycloheptyl]methyl]anilino]-5-methyl-N-methylsulfonyl-thiazole-4-carboxamide] | 1260 nM | 631 nM
4 | Cc1sc(N(CCCOc2ccccc2)c2ccc(C#N)cc2)nc1C(=O)NS(C)(=O)=O [Compound 368, 2-[4-cyano-N-(3-phenoxypropyl)anilino]-5-methyl-N-methylsulfonyl-thiazole-4-carboxamide] | > 10000 nM | 100 nM
5 | Cc1sc(N(Cc2ccc3c(c2)CCO3)c2ccc(C#N)cc2)nc1C(=O)NS(C)(=O)=O [Compound 478, 2-[4-cyano-N-(2,3-dihydrobenzofuran-5-ylmethyl)anilino]-5-methyl-N-methylsulfonyl-thiazole-4-carboxamide] | 25.1 nM | 63.1 nM
6 | Cc1sc(N(CCC2CCCCC2)Cc2ccc(Cl)cc2)nc1C(=O)NS(=O)(=O)C1CC1 [Compound 730, 2-[(4-chlorophenyl)methyl-(2-cyclohexylethyl)amino]-N-cyclopropylsulfonyl-5-methyl-thiazole-4-carboxamide] | > 10000 nM | 
7 | Cc1sc(N(Cc2cc(C(F)(F)F)ccc2C(F)(F)F)c2ccc(C#N)cc2)nc1C(=O)NS(C)(=O)=O [Compound 415, 2-[N-[[2,5-bis(trifluoromethyl)phenyl]methyl]-4-cyano-anilino]-5-methyl-N-methylsulfonyl-thiazole-4-carboxamide] |  | > 2000 nM
8 | Cc1sc(N(Cc2ccccn2)c2ccc(C#N)cc2)nc1C(=O)NS(C)(=O)=O [Compound 42, 2-[4-cyano-N-(2-pyridylmethyl)anilino]-5-methyl-N-methylsulfonyl-thiazole-4-carboxamide] |  | > 2000 nM
9 | CC(=O)c1cccc(CN(c2ccc(C#N)cc2)c2nc(C(=O)NS(C)(=O)=O)c(C)s2)c1 [Compound 95, 2-[N-[(3-acetylphenyl)methyl]-4-cyano-anilino]-5-methyl-N-methylsulfonyl-thiazole-4-carboxamide] |  | 251 nM
10 | Cc1sc(N(Cc2ccccc2)Cc2ccncc2)nc1C(=O)NS(C)(=O)=O [Example 296, 2-[benzyl(4-pyridylmethyl)amino]-5-methyl-N-methylsulfonyl-thiazole-4-carboxamide] |  | > 2000 nM
11 | Cc1sc(N(Cc2ccccc2)C2CCCCC2)nc1C(=O)NS(C)(=O)=O [Compound 670, 2-[benzyl(cyclohexyl)amino]-5-methyl-N-methylsulfonyl-thiazole-4-carboxamide] |  | > 2000 nM
12 | CNC(=O)COc1ccc(CN(c2ccc(C#N)cc2)c2nc(C(=O)NS(C)(=O)=O)c(C)s2)cc1 [Compound 574, 2-[4-cyano-N-[[4-[2-(methylamino)-2-oxo-ethoxy]phenyl]methyl]anilino]-5-methyl-N-methylsulfonyl-thiazole-4-carboxamide] |  | > 2000 nM
13 | CO[C@@H]1CCC[C@H](CN(c2ccc(C#N)cc2)c2nc(C(=O)NS(C)(=O)=O)c(C)s2)C1 (racemic) [Compound 349, 2-[4-cyano-N-[[cis-3-methoxycyclohexyl]methyl]anilino]-5-methyl-N-methylsulfonyl-thiazole-4-carboxamide] |  | 501 nM
14 | Cc1sc(N(Cc2ccccc2)c2ccccc2OC(F)(F)F)nc1C(=O)NS(C)(=O)=O [Compound 27, 2-[N-benzyl-2-(trifluoromethoxy)anilino]-5-methyl-N-methylsulfonyl-thiazole-4-carboxamide] |  | > 2000 nM
15 | Cc1sc(N(c2ccc(C#N)cc2)C(C)c2ccccc2)nc1C(=O)NS(C)(=O)=O (stereo not shown) [Compound 58, 2-[4-cyano-N-(1-phenylethyl)anilino]-5-methyl-N-methylsulfonyl-thiazole-4-carboxamide] |  | > 2000 nM
16 | Cc1sc(N(CCc2cccc(N(C)C)c2)c2ccc(C#N)cc2)nc1C(=O)NS(C)(=O)=O [Compound 475, 2-[4-cyano-N-[2-[3-(dimethylamino)phenyl]ethyl]anilino]-5-methyl-N-methylsulfonyl-thiazole-4-carboxamide] |  | 794 nM
17 | COc1ccccc1N(Cc1ccccc1)c1nc(C(=O)NS(C)(=O)=O)c(C)s1 [Compound 47, 2-(N-benzyl-2-methoxy-anilino)-5-methyl-N-methylsulfonyl-thiazole-4-carboxamide] |  | > 2000 nM
18 | Cc1sc(N(Cc2ccccc2)c2ccccn2)nc1C(=O)NS(C)(=O)=O [Compound 408, 2-[benzyl(2-pyridyl)amino]-5-methyl-N-methylsulfonyl-thiazole-4-carboxamide] |  | > 2000 nM
19 | Cc1sc(N(Cc2ccccc2)c2ccc3[nH]ccc3c2)nc1C(=O)NS(C)(=O)=O [Compound 336, 2-[benzyl(1H-indol-5-yl)amino]-5-methyl-N-methylsulfonyl-thiazole-4-carboxamide] |  | > 2000 nM
20 | Cc1sc(N(Cc2ccc(CO)cc2)c2ccc(C#N)cc2)nc1C(=O)NS(C)(=O)=O [Compound 356, 2-[4-cyano-N-[[4-(hydroxymethyl)phenyl]methyl]anilino]-5-methyl-N-methylsulfonyl-thiazole-4-carboxamide] |  | 631 nM
21 | Cc1sc(N(Cc2ccccc2)c2ccc(OCCOCc3ccccc3)cc2)nc1C(=O)NS(C)(=O)=O [Example 209, 2-[N-benzyl-4-(2-benzyloxyethoxy)anilino]-5-methyl-N-methylsulfonyl-thiazole-4-carboxamide] |  | > 2000 nM
22 | Cc1nc(CCN(c2ccc(C#N)cc2)c2nc(C(=O)NS(C)(=O)=O)c(C)s2)cs1 [Compound 135, 2-[4-cyano-N-[2-(2-methylthiazol-4-yl)ethyl]anilino]-5-methyl-N-methylsulfonyl-thiazole-4-carboxamide] |  | > 2000 nM
23 | Cc1sc(N(Cc2ccccc2)c2ccc3c(ccn3C)c2)nc1C(=O)NS(C)(=O)=O [Compound 338, 2-[benzyl-(1-methylindole-5-yl]amino]-5-methyl-N-methylsulfonyl-thiazole-4-carboxamide] |  | > 2000 nM
